Experiment: xn = mol fraction of the nth substance listed

CCOCC + ClC(Cl)Cl
101.33 kPa
Conditions | viscosity [mPa·s]
293.15 K, x2 = 0.1704 | 0.295
293.15 K, x2 = 0.2909 | 0.354
293.15 K, x2 = 0.4425 | 0.416
293.15 K, x2 = 0.562 | 0.466
293.15 K, x2 = 0.6848 | 0.507
293.15 K, x2 = 0.8038 | 0.536
293.15 K, x2 = 0.8989 | 0.555
298.15 K, x1 = 0.274 | 0.472
298.15 K, x1 = 0.528 | 0.397
298.15 K, x1 = 0.672 | 0.34
298.15 K, x1 = 0.863 | 0.268
298.15 K, x2 = 0.1567 | 0.282
298.15 K, x2 = 0.3094 | 0.343
298.15 K, x2 = 0.4329 | 0.395
298.15 K, x2 = 0.5582 | 0.445
298.15 K, x2 = 0.6897 | 0.489
298.15 K, x2 = 0.8073 | 0.519
298.15 K, x2 = 0.8947 | 0.536

CC(=O)CC(C)C + ClC(Cl)Cl
298.15 K, 101 kPa
Conditions | viscosity [mPa·s]
x2 = 0.0813 | 0.5611
x2 = 0.1599 | 0.5799
x2 = 0.2352 | 0.5986
x2 = 0.3916 | 0.6341
x2 = 0.497 | 0.6494
x2 = 0.6114 | 0.6521
x2 = 0.7252 | 0.6349
x2 = 0.864 | 0.5903
x2 = 0.9291 | 0.5613

CC(=O)CC(C)C + CC(C)=O
298.15 K, 101 kPa
Conditions | viscosity [mPa·s]
x2 = 0.0872 | 0.5206
x2 = 0.2689 | 0.474
x2 = 0.3526 | 0.4524
x2 = 0.359 | 0.45
x2 = 0.5077 | 0.4139
x2 = 0.7067 | 0.366
x2 = 0.7731 | 0.3515
x2 = 0.8344 | 0.3373
x2 = 0.835 | 0.3362
x2 = 0.9323 | 0.3141

CC(C)CC(=O)CC(C)C + CC(C)O
viscosity [mPa·s], 100 kPa
Conditions | x1 = 0.0818 | x1 = 0.1619 | x1 = 0.2451 | x1 = 0.3518 | x1 = 0.4413 | x1 = 0.5637 | x1 = 0.6549 | x1 = 0.7367 | x1 = 0.8528 | x1 = 0.9379
293.15 K | 1.93 | 1.52 | 1.19 | 0.92 | 0.76 | 0.65 | 0.63 | 0.66 | 0.77 | 0.87
298.15 K | 1.73 | 1.41 | 1.14 | 0.88 | 0.72 | 0.62 | 0.61 | 0.64 | 0.74 | 0.83
303.15 K | 1.51 | 1.26 | 1.05 | 0.83 | 0.7 | 0.6 | 0.59 | 0.62 | 0.72 | 0.8
308.15 K | 1.32 | 1.12 | 0.95 | 0.77 | 0.66 | 0.58 | 0.57 | 0.6 | 0.68 | 0.76
313.15 K | 1.18 | 1.01 | 0.87 | 0.72 | 0.63 | 0.56 | 0.55 | 0.57 | 0.64 | 0.71
318.15 K | 1.05 | 0.92 | 0.8 | 0.67 | 0.6 | 0.54 | 0.53 | 0.55 | 0.61 | 0.67
323.15 K | 0.93 | 0.82 | 0.72 | 0.63 | 0.57 | 0.52 | 0.51 | 0.53 | 0.58 | 0.63

CC(C)CC(=O)CC(C)C + CCC(C)O
viscosity [mPa·s], 100 kPa
Conditions | x1 = 0.0815 | x1 = 0.157 | x1 = 0.2356 | x1 = 0.3483 | x1 = 0.4431 | x1 = 0.5526 | x1 = 0.6467 | x1 = 0.7381 | x1 = 0.8512 | x1 = 0.9337
293.15 K | 2.84 | 2.17 | 1.64 | 1.1 | 0.8 | 0.61 | 0.59 | 0.66 | 0.78 | 0.87
298.15 K | 2.36 | 1.82 | 1.36 | 0.88 | 0.63 | 0.47 | 0.45 | 0.54 | 0.69 | 0.81
303.15 K | 2 | 1.54 | 1.15 | 0.73 | 0.5 | 0.37 | 0.35 | 0.44 | 0.61 | 0.75
308.15 K | 1.69 | 1.33 | 0.99 | 0.64 | 0.44 | 0.31 | 0.27 | 0.36 | 0.56 | 0.72
313.15 K | 1.42 | 1.11 | 0.85 | 0.55 | 0.39 | 0.27 | 0.24 | – | 0.51 | 0.66
318.15 K | 1.23 | 0.99 | 0.77 | 0.5 | 0.35 | 0.22 | 0.19 | 0.27 | 0.47 | 0.62
323.15 K | 1.11 | 0.91 | 0.72 | 0.46 | 0.3 | 0.17 | 0.15 | 0.23 | 0.42 | 0.57

CC(=O)CC(C)C + O=C1CCCCC1
298.15 K, 101 kPa
Conditions | viscosity [mPa·s]
x1 = 0.1218 | 1.58
x1 = 0.2067 | 1.371
x1 = 0.3146 | 1.163
x1 = 0.3931 | 1.037
x1 = 0.534 | 0.872
x1 = 0.6373 | 0.773
x1 = 0.7694 | 0.672
x1 = 0.888 | 0.599

CCC12CC3CC(CC(C3)C1)C2 + CCCCCCCCC
viscosity [mPa·s], 100 kPa
Conditions | x1 = 0.0998 | x1 = 0.2013 | x1 = 0.3004 | x1 = 0.4014 | x1 = 0.5002 | x1 = 0.5999 | x1 = 0.7002 | x1 = 0.7995 | x1 = 0.9008
293.15 K | 1.043 | 1.335 | 1.642 | 1.902 | 2.234 | 2.701 | 3.287 | 4.086 | 5.133
298.15 K | 0.972 | 1.243 | 1.492 | 1.728 | 2.019 | 2.384 | 2.881 | 3.537 | 4.44
303.15 K | 0.921 | 1.141 | 1.369 | 1.577 | 1.836 | 2.144 | 2.581 | 3.158 | 3.898
308.15 K | 0.836 | 1.053 | 1.261 | 1.448 | 1.684 | 1.957 | 2.34 | 2.833 | 3.47
313.15 K | 0.786 | 0.985 | 1.166 | 1.334 | 1.547 | 1.792 | 2.128 | 2.556 | 3.114
318.15 K | 0.729 | 0.901 | 1.073 | 1.232 | 1.416 | 1.644 | 1.94 | 2.32 | 2.815
323.15 K | 0.696 | 0.85 | 1.006 | 1.144 | 1.317 | 1.515 | 1.782 | 2.115 | 2.547

Reference: the CheMixHub viscosity set
